The values below come from patent US5681833A, “Benzodiazepine derivatives” (Merck, Sharp & Dohme Ltd., priority 1992, dated 1997).

SMILES strings stand for the structures. Where two headings read alike, the source gives them in different places.

One test deals with T1, CCK receptor (brain) (Cavia porcellus, UniProt H0VZC5).
T1 construct: the cortex was removed and homogenized in 25 mL ice-cold 0.32M sucrose; from tissue; host or cells: cortex of male Hartley guinea pigs, P2 membranes
T1 sequence (H0VZC5 1-426): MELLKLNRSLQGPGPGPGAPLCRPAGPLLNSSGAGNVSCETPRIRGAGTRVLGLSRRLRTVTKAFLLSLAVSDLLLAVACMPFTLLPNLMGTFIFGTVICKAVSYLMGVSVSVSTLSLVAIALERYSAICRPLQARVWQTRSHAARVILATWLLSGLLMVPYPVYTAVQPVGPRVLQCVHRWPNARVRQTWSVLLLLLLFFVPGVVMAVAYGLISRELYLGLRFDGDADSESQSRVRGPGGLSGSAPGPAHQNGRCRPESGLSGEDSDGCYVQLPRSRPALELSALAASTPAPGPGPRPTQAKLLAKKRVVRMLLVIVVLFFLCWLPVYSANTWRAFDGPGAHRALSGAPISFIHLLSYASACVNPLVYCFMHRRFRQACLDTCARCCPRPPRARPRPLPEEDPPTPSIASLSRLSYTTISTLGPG
The experiment in a line: CCK Receptor Binding (Brain), inhibition of specific 125I-CCK-8 binding. The note with it: guinea pig cortex membranes; 50 pM 125I-CCK-8; 25° C., 2 hours; pH 6.5; read-out: IC50 125I-CCK Brain. Details: species or system guinea pig (male Hartley). As for the experimental part:
2. CCK Receptor Binding (Brain)
CCK-8 sulphated was radiolabelled and the binding was performed according to the description for the pancreas method with minor modifications.
Male Hartley guinea pigs (300-500 g) were sacrificed by decapitation and the cortex was removed and homogenized in 25 mL ice-cold 0.32M sucrose. The homogenates were centrifuged at 1000 g for 10 minutes and the resulting supernatant was recentrifuged at 20,000 g for 20 minutes. The P2 pellet was resuspended in binding assay buffer (20mM HEPES, 5 mM MgCl2, 0.25 mg/ml bacitracin, 1 mM EGTA pH 6.5 at 25° C.), using a Teflon (trademark) homogenizer (5 strokes at 500 rpm) to give a final concentration of 10 mg original wet weight/1.2 ml buffer. […] All assays were run in duplicate. The reaction mixtures were incubated at 25° C. for 2 hours and then the reaction was terminated by rapid filtration (Brandell 24 well cell harvester) on Whatman GF/C filters with 3×5 ml washes of cold 100 mM NaCl. The radioactivity on the filters was counted with a LKB gamma counter.

A further test has as its target T2, CCK receptor (pancreas) (Rattus norvegicus, UniProt P30551).
T2 construct: The whole pancreas was dissected free of fat tissue and was homogenized; from tissue; host or cells: whole pancreas of male Sprague-Dawley rats, homogenate membranes
T2 sequence (P30551 1-444): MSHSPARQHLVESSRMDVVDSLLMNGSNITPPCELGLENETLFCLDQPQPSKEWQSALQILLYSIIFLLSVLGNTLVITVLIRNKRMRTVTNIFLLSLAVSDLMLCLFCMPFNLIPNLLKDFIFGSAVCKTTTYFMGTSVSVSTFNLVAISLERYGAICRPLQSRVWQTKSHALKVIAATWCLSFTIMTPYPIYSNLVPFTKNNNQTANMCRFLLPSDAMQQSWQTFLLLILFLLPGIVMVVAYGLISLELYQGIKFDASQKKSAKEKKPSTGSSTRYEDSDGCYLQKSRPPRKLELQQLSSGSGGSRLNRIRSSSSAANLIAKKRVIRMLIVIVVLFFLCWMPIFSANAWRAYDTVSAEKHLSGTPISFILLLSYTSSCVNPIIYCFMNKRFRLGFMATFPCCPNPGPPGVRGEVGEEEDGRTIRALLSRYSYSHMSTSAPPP
Put plainly: CCK Receptor Binding (Pancreas), inhibition of specific 125I-CCK-8 binding. Details: species or system rat (male Sprague-Dawley). As for the experimental part: 1. CCK Receptor Binding (Pancreas)
CCK-8 sulphated was radiolabelled with ^125 I-Bolton Hunter reagent (2000 Ci/mmole). Receptor binding was performed according to Chang and Lotti (Proc. Natl. Acad. Sci. 83, 4923-4926, 1986) with minor modifications.
Male Sprague-Dawley rats (150-200 g) were sacrificed by decapitation. The whole pancreas was dissected free of fat tissue and was homogenized in 25 volumes of ice-cold 10 mM N-2-hydroxyethyl-piperazine-N'-2-ethane sulphonic acid (HEPES) buffer with 0.1% soya bean trypsin inhibitor (pH 7.4 at 25° C.) with a Kinematica Polytron. The homogenates were centrifuged at 47,800 g for 10 min. Pellets were resuspended in 10 volumes of binding assay buffer (20 mM (HEPES)), 1 mM ethylene glycol-bis-(β-aminoethylether-N,N'-tetraacetic acid) (EGTA), 5 mM MgCl2, 150 mM NaCl, bacitracin 0.25 mg/ml, soya bean trypsin inhibitor 0.1 mg/ml, and bovine serum albumin 2 mg/ml pH 6.5 at 25° C.) using a Teflon (trademark) homogenizer, 15 strokes at 500 rpm. The homogenate was further diluted in binding assay buffer to give a final concentration of 0.5 mg original wet weight/1 ml buffer. […] All assays were run in duplicate. The reaction mixtures were incubated at 25° C. for 2 hours and the reaction terminated by rapid filtration (Brandell 24 well cell harvester) over Whatman GF/C filters, washing 3×4 mls with ice-cold 100 Mm NaCl. The radioactivity on the filters was counted with a LKB gamma counter.

One may read the IC50 as the midpoint of a concentration-inhibition curve. As for `CCCN1C(=O)C(NC(=O)Nc2cccc(Nc3ncc[nH]3)c2)N=C(C2CCCCC2)c2ccccc21` (racemic) [Example 19, N-[3(R,S)-5-Cyclohexyl-2,3-dihydro-2-oxo-1-propyl-1H-1,4-benzodiazepin-3-yl]N'-[3-[(1H-imidazol-2-yl)amino]phenyl]urea], the IC50 stood at 82.9 nM at CCK receptor (brain) and 1.33 nM at CCK receptor (pancreas) (rat pancreas membranes, 50 pM 125I-CCK-8, 25° C., 2 hours, pH 6.5, read-out: IC50 125I-CCK Pancreas).
For the compound `CN1C(=O)C(C)(NC(=O)Nc2cccc(CNc3nnn[nH]3)c2)N=C(c2ccccc2)c2ccccc21` (racemic) [Example 15, N-[3-(R,S)-2,3-Dihydro-1,3-dimethyl-2-oxo-5-phenyl-1H-1,4-benzodiazepin-3-yl]-N'-[3-{(tetrazol-5-yl)aminomethyl}phenyl]urea], the IC50 on CCK receptor (brain) amounted to 1300 nM; on CCK receptor (pancreas), 42.8 nM.
